Reference: PMC3353486, “Fluorescence Correlation Spectroscopy in Drug Discovery: Study of Alexa532-Endothelin 1 Binding to the Endothelin ETA Receptor to Describe the Pharmacological Profile of Natural Products” (The Scientific World Journal, 2012)

Experiments:
endothelin ETA receptor = target: T1, endothelin ETA receptor (Rattus norvegicus, UniProt P26684); test: FCS binding of Alexa532-ET1 to ETA receptor on living A10 cells (total, saturation, lateral mobility)
T1 construct: endothelin ETA receptor-ligand complex alone and under the influence of a semisynthetic selective antagonist and a fungal extract on living A10 cells; endogenous in cells; host or cells: A10 cells
T1 sequence (P26684 21-426): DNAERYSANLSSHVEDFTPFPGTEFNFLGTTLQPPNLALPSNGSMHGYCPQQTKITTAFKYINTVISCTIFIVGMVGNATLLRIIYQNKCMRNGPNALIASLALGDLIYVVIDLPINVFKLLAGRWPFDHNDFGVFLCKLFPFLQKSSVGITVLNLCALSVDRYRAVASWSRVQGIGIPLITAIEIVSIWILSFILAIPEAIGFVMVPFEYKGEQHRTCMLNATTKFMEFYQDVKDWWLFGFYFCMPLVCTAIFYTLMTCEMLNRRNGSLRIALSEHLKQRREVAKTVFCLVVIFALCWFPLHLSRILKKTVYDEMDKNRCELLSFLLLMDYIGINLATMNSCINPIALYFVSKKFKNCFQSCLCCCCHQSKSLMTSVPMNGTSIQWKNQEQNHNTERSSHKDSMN
Procedure: FCS measurements were performed via confocal illumination of a volume element of 0.19 fL in a ConfoCor 1 instrument (Zeiss, Jena, Germany) with a C-Apochromat 63x, NA 1.2 objective for water immersion. A dichroic filter and a band-pass filter (FT 540, EF 530–600) (Andover, Salem, MA) separated the excitation light from the emitted fluorescence. Sample excitation was performed with the 514 nm line of an argon laser. The power of the laser beam entering the sample was 2.4 kW/cm^2. The intensity fluctuations were detected by an avalanche photodiode (SPCM-AQ Series, PerkinElmer Optoelectronics, Fremont, ON) and were correlated with a digital hardware correlator (ALV-5000, ALV, Langen, Germany). To calibrate the volume element of observation for the experiments, a defined concentration of tetramethylrhodamine (TMR) was used. From the determined diffusion time constant of TMR and the diffusion coefficient D of 280 μm^2/s, the radio ω 0 (0.20 μm) and z 0 (1.08 μm) of the volume element were determined. Volume element positioning to the upper membrane of the cell was performed by motor-aided scanning through the cell in the z-direction (optoelectronical DC-servodrives, resolution of 0.1 μm). For the FCS experiments, the focus was placed at half maximal of fluorescence intensity at the upper membrane, taking in fast diffusing free ligand and slow diffusing receptor-ligand complexes in the plasma membrane.
A10 cells were seeded at a density of 5.0 × 10^4 on 18 mm poly-D-lysine-coated coverslips. The coverslips were placed in a Nunc 12 well plate, and the cells were cultured for 7 days in Dulbecco's Modified Essential Media supplemented with L-glutamine (2 mM), 1% of a solution containing 10000 I.U./mL penicillin and 10000 μg/mL streptomycin (GIBCO, Invitrogen, Karlsruhe, Germany) and 20% foetal calf serum. The cells were grown in 5% CO2 at 37°C until confluence was reached.
Prior to the FCS measurements, cells were washed three times with Locke's solution (5 mM HEPES, 154 mM NaCl, 5.6 mM KCl, 1 mM MgCl2, 3.6 mM Na2CO3, 2.0 mM glucose, 2.3 mM CaCl2 (pH 7.4)) at 37°C.
The autocorrelation function G(τ) for j different diffusing components in a three-dimensional Gaussian volume element is given by the following equation:
(2) τDj=ω02/4Dj, (3) Qj=σjηjgj, where N j is the average number of molecules of the species j in the volume element, τ Dj is the diffusion time constant of the species j, τ is the correlation time; ω 0 is the radius of the observation volume in the focal plane, z 0 is the radius of the observation volume in the z-direction, D j is the translational diffusion coefficient of the species j; Q j is the quantum yield factor, σ j is the absorption coefficient, η j is the fluorescence quantum yield, and g j is the fluorescence detection efficiency of the species j.
All data points from FCS measurements represent mean values and standard deviations of six independent experiments. The statistical significance of results was proven with one factorial analysis of variance (ANOVA). The results were considered to be significant for P values ≤0.05.

[1] = test system: Rat vascular smooth muscle A10 cells; test: Inositol phosphate (IP1) production, IP-One ELISA, A10 cells; format: cell-based; settings: 0.5 to 50 nM ligand, 30 min; for inositol phosphate (IP1) production, dose-dependent increase up to: ELISA read at 450 nm, mean ± SEM of eight measurements
Procedure: The inositol phosphate determination assay was performed using the IP-One ELISA Kit for adherent cells (CISBIO, Cedex, France) following the operation instructions. […] The test substances were diluted in the stimulation buffer to a final concentration ranging from 0.5 to 50 nM. Cells were incubated for 30 minutes before their lysis. The supernatant was transferred into the ELISA plate where the competitive immunoassay took place. After the reaction was stopped, the optical density corresponding to IP accumulation was read at 450 nm with Bio-Rad Microplate Reader (Bio-Rad, Munich, Germany).
Data are presented as the mean ± SEM of eight measurements.

GABAA receptor = settings: coincubated benzodiazepines, hippocampal neurons, selectively complexes with hindered lateral mobility; cited from earlier work
From the text: For the ETA receptor model described here, as well as for the GABAA and the β 2-adrenergic receptor models described elsewhere, the proportion of the fast diffusing receptor-ligand complexes was higher than that of slow diffusing receptor-ligand complexes. These findings ...

ETA receptor = test system: ETA receptor; design: method as in PMID 8942650; settings: ET-1/receptor complexes dissociate slowly; cited from earlier work
[2] = 14.3 nM Alexa532-ET1, equilibrium
[3] = control, 14.3 nM Alexa532-ET1, 45 min, living A10 cells, FCS, mean ± SD of six independent experiments

Row | Compound | diffusion time constant τ free (free diffusing Alexa532-ET1 in solution, n = 6) [μs] | diffusion coefficient D free (free diffusing ligand, calculated from τ free using equation (2)) [μm^2/s] | total binding (endothelin ETA receptor; 14.3 nM Alexa532-ET1, 45 min, 20°C) [%] | total bound ligand concentration (endothelin ETA receptor; 14.3 nM Alexa532-ET1, 45 min, 20°C, equilibrium) [nM] | bound ligand with hindered diffusion (D bound1) (endothelin ETA receptor; [2]) [nM] | receptor-ligand complexes with unrestricted lateral mobility (D bound2) (endothelin ETA receptor; [2]) [nM] | maximum number of binding sites B max (endothelin ETA receptor; bound versus total ligand, nonlinear curve fitting) [nM] | Free L with D free [%] (endothelin ETA receptor; [3]) | R-L with D bound1 [%] (hindered diffusion, % of total Alexa532-ET1) (endothelin ETA receptor; [3]) | R-L with D bound2 [%] (unrestricted lateral mobility, % of total Alexa532-ET1) (endothelin ETA receptor; [3]) | diffusion time constant τ bound2 (endothelin ETA receptor; receptor-ligand complex in plasma membrane, fast, 14.3 nM, 45 min, 20°C, n = 6) [ms] | diffusion time constant τ bound1 (endothelin ETA receptor; receptor-ligand complex in plasma membrane, slow, 14.3 nM, 45 min, 20°C, n = 6) [ms] | diffusion coefficient D bound1 (endothelin ETA receptor; receptor-ligand complexes with hindered lateral mobility, calculated from τ bound1) [μm^2/s] | diffusion coefficient D bound2 (endothelin ETA receptor; receptor-ligand complexes with unrestricted mobility, calculated from τ bound2) [μm^2/s] | total concentration at which binding saturates (endothelin ETA receptor; saturation of Alexa532-ET1 binding, 5–55 nM, 45 min) | inositol phosphate production (in words) [1] | inositol phosphate (IP1) production, dose-dependent increase up to [1] [nM] | effect on Alexa532-muscimol binding (in words) (GABAA receptor) | incubation time necessary to reach thermodynamic equilibrium (ETA receptor)
1 | CC[C@H](C)[C@H](NC(=O)[C@H](CC(=O)O)NC(=O)[C@H](CC(C)C)NC(=O)[C@H](Cc1c[nH]cn1)NC(=O)[C@@H]1CSSC[C@H](N)C(=O)N[C@@H](CO)C(=O)N[C@H]2CSSC[C@H](NC(=O)[C@H](CCC(=O)O)NC(=O)[C@H](CCCCNC(=O)c3ccc(C4=c5cc6c(c(S(=O)(=O)O)c5Oc5c4cc4c(c5S(=O)(=O)O)NC(C)C4(C)C)=NC(C)C6(C)C)cc3)NC(=O)[C@H](CC(=O)O)NC(=O)[C@H](CCSC)NC(=O)[C@H](CC(C)C)NC(=O)[C@H](CO)NC(=O)[C@H](CO)NC2=O)C(=O)N[C@@H](C(C)C)C(=O)N[C@@H](Cc2ccc(O)cc2)C(=O)N[C@@H](Cc2ccccc2)C(=O)N1)C(=O)N[C@H](C(=O)N[C@@H](Cc1c[nH]c2ccccc12)C(=O)O)[C@@H](C)CC (some centres unmarked) [Alexa532-ET1] | 95.6 ± 9.0 | 104.2 ± 9.0 | 43.5 ± 12.3 | 6.22 ± 1.7 | 2.3 ± 0.7 | 3.9 ± 1.0 | 7.70 ± 0.74 | 56.5 ± 8.5 | 16.0 ± 5.2 | 27.5 ± 7.0 | 1.8 ± 0.2 | 63.6 ± 41.6 | 0.16 ± 0.06 | 5.6 ± 0.6 | approximately 35 nM | Dose-dependent increase of inositol phosphate production | 70 to 80 | – | –
2 | Cc1ncc2n1-c1ccc(Cl)cc1C(c1ccccc1F)=NC2 [midazolam] | – | – | – | – | – | – | – | – | – | – | – | – | – | – | – | – | – | increased binding of Alexa532-muscimol | –
3 | Endothelin-1 [ET-1, reference compound] | – | – | – | – | – | – | – | – | – | – | – | – | – | – | – | – | 70 to 80 | – | more than 20 h
